Results published in PMC3608737, “Odorant Metabolism Catalyzed by Olfactory Mucosal Enzymes Influences Peripheral Olfactory Responses in Rats” (PLoS ONE, 2013).
pIC50: −log10 of the molar value. Blank lines part the entries; values can stand above or below the compound they belong to.

Tests used:
[1] = tested on: olfactory epithelium; conditions: for EOG amplitude compared with parent compound (coumarin or 4-MC): 1, 10 and 100 µM, normalized to IBMX; for EOG amplitude compared with parent compound (coumarin or 4-MC) / EOG response compared with quinoline: vehicle 0.01% DMSO; for EOG response compared with quinoline: 100 µM, normalized to IBMX responses
Procedure: Odorant stock solutions (1 M) were prepared in DMSO. Working solutions were prepared extemporaneously by diluting stock solutions with the Ringer solution. […] The IBMX stock solution (10 mM) was also prepared in DMSO. This stock solution was diluted 100-fold with the Ringer solution to produce a working solution (100 µM) containing 0.1% DMSO.
To assess sensory responses induced by odorant stimulation of the olfactory mucosa, we recorded EOGs. […] Rats were sacrificed by CO2 exposure and decapitated. The head was hemisected and the nasal septum was carefully removed to expose the endoturbinate system of the main olfactory system. The tissue was then superfused continuously (5 mL/min) at room temperature (22–25°C) with modified Ringer buffer containing 140 mM NaCl, 5 mM KCl, 2 mM CaCl2, 2 mM MgCl2, 10 mM HEPES [4-(2-hydroxyethyl)-1-piperazineethanesulfonic acid], adjusted to pH 7.2 and to 320 mOsm.L^−1 with glucose. Odorant stimuli were applied to the turbinates using a custom-built odorant delivery system consisting of a Rheodyne six-port injection valve equipped with a 200-µL loop. This valve injects odorant into the continuous stream of the Ringer solution. The distal part of the delivery system was fixed to a micromanipulator and adjusted to produce uniform flow in the vicinity of the recording electrode. The recording electrode was an Ag/AgCl wire positioned in a disposable pipette tip filled with a conductive gel (WPI, Sarasota, USA). The reference electrode was an 8-mm diameter Ag/AgCl disk covered with conductive gel that was placed under the rat hemi-head. Electrical signals were amplified using an AC/DC differential amplifier (A-M Systems, model 3000, Phymep, Paris, France), run through a low-pass filter of 300 Hz, digitized at 100 Hz using a Digidata 1440A interface board (Axon Instruments, DIPSI Industrie, Châtillon, France) and acquired using Axoscope 10.2 software (Axon Instruments). The data were analyzed using Clampfit software (Axon Instruments). The peak amplitudes of EOG responses were measured at the maximum negative voltage deflection from baseline. The data were normalized by dividing the peak amplitude by the maximum amplitude elicited by 100 µM of IBMX, a phosphodiesterase inhibitor that activates the transduction pathway bypassing the receptor step.

[2] = tested on: mammalian ORs; set-up: method as in PMID 19261596; conditions: approximately 460 mammalian ORs; cited from earlier work
[3] = tested on: CYPs; assay: Inhibition of quinoline metabolism catalyzed by olfactory microsomes; type: biochemical, rat; conditions: for pIC50: substrate quinoline
Procedure: (§1) Animals were sacrificed by decapitation. […] The resulting pellet was resuspended in homogenization buffer. Hepatic subcellular fractions were prepared as described previously.
(§2) Coumarin Quinoline Isoamyl acetate
(§3) Subcellular fraction olfactory hepatic olfactory/hepatic olfactory/hepatic
(§4) microsomes microsomes microsomes S9

[4] = tested on: carboxylesterases; assay: Inhibition of isoamyl acetate hydrolysis in the olfactory S9 fraction; type: biochemical, rat
Procedure: as §1
(§5) Reactions involving isoamyl acetate were carried out for 10 min and were terminated by heating at 80°C for 15 min. After centrifugation at 12000 g for 10 min, isoamyl acetate metabolism was assessed by quantifying the acetate in a sample volume of 100 µL using an acetic acid assay kit (Megazyme, Bray, Ireland).
as §2, §3, §4

[5] = tested on: CYP; assay: Quinoline/coumarin metabolism in microsomes from OM superfused with inhibitor for 20 min; type: biochemical, rat; conditions: 400 µM, superfusion 20 min
Procedure: Reactions were performed in triplicate at 37°C and were initiated by adding odorant to the mixtures after a 5-min pre-incubation period. […] Subsequently, the products were centrifuged at 12 000 g for 10 min. An aliquot of the supernatant (100 µl) was analyzed by reverse phase high performance liquid chromatography (HPLC) using a Waters HPLC system (Milford, MA, USA) equipped with a pump (model 600), an autosampler thermostat set at 10°C (model a717 plus), a photodiode array UV detector (model 996) and an Uptisphere C18-ODB column (5-µm particle size, 150×4.6 mm; Interchim, Montluçon, France). The effluent from the column was routed to an UV detector, which can scan wavelengths from 210 to 400 nm. […] The separation of coumarin and its metabolites was achieved using a solvent gradient program (at 0.6 mL/min) set at: 25% acetonitrile/75% formic acid (0.01% in water) for 10 min, a linear gradient to 80% acetonitrile for 20 min, hold at 80% acetonitrile for 10 min, and then return to the initial conditions.

[6] = tested on: olfactory epithelium; assay: Effect of XME inhibitors on odorant-induced EOG responses; set-up: species or system rat
Procedure: Rats were sacrificed by CO2 exposure and decapitated. […] The data were analyzed using Clampfit software (Axon Instruments).
First, two series of odorant stimulations at 2-min intervals were performed with an 8-min recovery period between each series. Under control conditions, a 2-min interval is sufficient to recover normal response amplitude. Then, the inhibitor was diluted in the Ringer buffer (final concentration 400 µM) and applied to the olfactory turbinates at a rate of 2.5 mL/min for 20 min using the Rheodyne injection valve. The preparation was rinsed for 5 min with the Ringer buffer and the epithelium was stimulated by applying odorant using the same procedures as described above. EOG responses were recorded on endoturbinate IIb. IBMX was applied at the end of each measurement series for data normalization as described above. In addition to the peak maximum amplitude, the onset slope (10% to 90%) and the fast decay slope (90% to 40%) were measured and normalized to the corresponding EOG peak amplitude.

[7] = tested on: CYPs; assay: Inhibition of coumarin metabolite formation in olfactory microsomes; type: biochemical, rat; conditions: for pIC50: substrate coumarin
Procedure: as §1, §2, §3, §4

[8] = tested on: carboxylesterase; assay: Isoamyl acetate metabolism in S9 from OM superfused with inhibitor for 20 min; type: biochemical, rat; conditions: 400 µM, superfusion 20 min
Procedure: To investigate the functional role of the olfactory XMEs, we recorded odorant-induced EOG responses before and after applying two phase I enzyme inhibitors, ABT and BNPP. First, we confirmed that superfusion of OM with ABT or BNPP was sufficient to inhibit CYP and carboxylesterase activities, respectively. For this purpose, the in vitro metabolism of quinoline, coumarin and isoamyl acetate was measured. All steps were performed as described previously except that the microsomal or S9 fractions were prepared from OM that had been superfused with inhibitors for 20 min. Superfusion of the OM with 400 µM of ABT or BNPP decreased the metabolism of quinoline/coumarin or isoamyl acetate, respectively, by approximately 30 to 80% (Fig. S6).
as §5

[9] = In vitro metabolism of coumarin by olfactory microsomes (HPLC); type: in vitro ADME, rat
Procedure: as §1, §2, §3, §4

[10] = In vitro metabolism of coumarin by hepatic microsomes (HPLC); type: in vitro ADME, rat; conditions: liver (hepatic microsomes) incubation
Procedure: as §1, §2, §3, §4

[11] = inhibitor 400 µM for 20 min, endoturbinate IIb

Compound: Cc1cc(=O)oc2ccccc12 [4-MC, 4-methyl-coumarin]
- EOG amplitude compared with parent compound (coumarin or 4-MC) [1]: lower in amplitude than the responses to coumarin

Compound: Cc1cc(=O)oc2cc(O)ccc12 [4-MU, 4-methylumbelliferone]
- EOG amplitude compared with parent compound (coumarin or 4-MC) [1]: significantly lower than those induced by their parent compounds

Compound: Cc1cc(=O)oc2cc(O[C@@H]3O[C@H](C(=O)O)[C@@H](O)[C@H](O)[C@H]3O)ccc12 [4-MU-G, 4-methylumbelliferone-β-D-glucuronide]
- EOG amplitude compared with parent compound (coumarin or 4-MC) [1]: did not elicit any measurable EOG response

Compound: O=c1cc(O)c2ccccc2o1 [4-OH-C, 4-hydroxycoumarin]
- EOG amplitude compared with parent compound (coumarin or 4-MC) [1]: significantly lower than those induced by their parent compounds
- number of ORs activated [2]: only activated one OR

Compound: O=c1ccc2ccc(O)cc2o1 [7-OH-C, 7-hydroxycoumarin]
- EOG amplitude compared with parent compound (coumarin or 4-MC) [1]: significantly lower than those induced by their parent compounds

Compound: Oc1cccc2cccnc12 [8-OH-Q, 8-hydroxyquinoline]
- EOG response compared with quinoline [1]: half of that elicited by quinoline

- pIC50 ([3]; read-out: IC50 for inhibition of quinoline-1-oxide formation): 3.87
- pIC50 ([3]; read-out: IC50 for inhibition of quinoline-5,6-epoxide formation): 3.83
- decrease of metabolism of quinoline/coumarin after superfusion of the OM [5]: 30 to 80%
- pIC50 ([7]; read-out: IC50 for inhibition of 3-hydroxycoumarin formation): 4.39
- pIC50 ([7]; read-out: IC50 for inhibition of 6-hydroxycoumarin formation): 4.28
- pIC50 ([7]; read-out: IC50 for inhibition of 7-hydroxycoumarin formation): 4.72
Compound: Nn1nnc2ccccc21 [ABT, 1-aminobenzotriazole]
- decrease of the metabolism of quinoline ([3]; inhibitor 400 µM): approximately 80%
- effect on isoamyl acetate hydrolysis ([4]; data not shown): no effect
- effect on EOG responses to isoamyl acetate ([6]; ABT 400 µM for 20 min, endoturbinate IIb): did not affect
- effect on onset and decay slopes of EOG recordings ([6]; inhibitor 400 µM for 20 min): unaffected
- increase of maximum EOG amplitude elicited by coumarin [6, 11]: 43%
- increase of maximum EOG amplitude elicited by quinoline [6, 11]: 32%
- inhibition of coumarin metabolite formation ([7]; inhibitor 400 µM): Ninety percent

Compound: O=[N+]([O-])c1ccc(OP(=O)(O)Oc2ccc([N+](=O)[O-])cc2)cc1 [BNPP, bis-p-nitro-phenylphosphate]
- effect on olfactory metabolism of quinoline ([3]; data not shown): not affected
- pIC50 ([4]; olfactory S9 fraction): 6.10
- decrease of metabolism of isoamyl acetate after superfusion of the OM [8]: 30 to 80%
- effect on EOG responses elicited by coumarin ([6]; BNPP treatment, stated in the discussion only): but not those elicited by quinoline and coumarin
- effect on onset and decay slopes of EOG recordings ([6]; inhibitor 400 µM for 20 min): did not modify
- increase of maximal EOG response amplitude to isoamyl acetate [6, 11]: 30%
- effect on coumarin metabolism ([7]; data not shown): not affected

Compound: [O-][n+]1cccc2ccccc21 [Q-1-O, quinoline-1-oxide]
- EOG response compared with quinoline [1]: half of that elicited by quinoline

Compound: CC(=O)O [acetic acid]
- effect of repeated application on the OM [1]: caused tissue damage

- rate of coumarin biotransformation ([9]; OM (olfactory microsomes) incubation): 13.3 nmol/min/mg protein
- rate of coumarin biotransformation, OM versus liver incubation ([9]; OM higher than liver): 65 fold
- rate of coumarin biotransformation [10]: 0.2 nmol/min/mg protein
Compound: O=c1ccc2ccccc2o1 [coumarin]
- number of ORs activated [2]: 20

Compound: CC(C)CCO [isoamyl alcohol]
- EOG response amplitude, lower than that elicited by isoamyl acetate ([1]; at any concentration (1, 10, 100 µM)): approximately 60%
